Broadly, the inhibition is the change of the read-out against control, counted positive when it falls.

Where two headings read alike, the source gives them in different places.

One experiment has as its system Sensitized Guinea Pigs. Nature of the experiment: Slow-Onset (nonhistamine) Bronchospasm Induced by Antigen Challenge in Sensitized Guinea Pigs (SRSPIG). In kind it is in vivo, guinea pig. On the set-up: concentration or dose not given beside the values. As to conditions: mepyramine pretreated, five minutes after ovalbumin. An excerpt:
Induction and Quantitation of the Slow-Onset (nonhistamine) Bronchospasm Induced by Antigen Challenge in Sensitized Guinea Pigs (SRSPIG)
This guinea pig in vivo model was developed to quantitate the pulmonary effects of nonhistamine mediated, antigen-induced anaphylaxis. Mepyramine pretreatment is used to block the effects of histamine to permit quantitation of the effects of other biologically active mediators. The method is designed to detect drugs which inhibit the release or synthesis "other" mediators, such as leukotriene, thromboxane, etc., or drugs blocking the end organ effects of these mediators. When a sensitized guinea pig is exposed to the sensitizing antigen, it develops a systemic anaphylactic response characterized by increased pulmonary resistance and decreased dynamic compliance (CDYN). Pulmonary resistance is a measure of the changes in transpulmonary pressure and respiratory flow. Dynamic compliance is an expression of the relative changes in tidal volume and transpulmonary pressure. In this model, dynamic compliance is used to measure changes in the elastic propertie of the small airways and pulmonary resistance to measure constrictive responses of the large airways. In human asthma, small airway changes appear to be more closely related to the pathogenesis of disease. Thus, dynamic compliance effects will be weighted more heavily in our analysis of the changes produced by drugs. In the presence of mepyramine, the effects of histamine are blocked. The observed pulmonary effects are thought to be largely leukotriene mediated. In the guinea pig, thromboxanes may also be involved (1,2) and might augment the leukotriene response. Since leukotrienes are not preformed mediators and their effects are slow in onset, in the absence of the histamine effect, a bronchospasm is not seen until approximately 1.5-3 minutes after antigen administration. However, the leukotriene-mediated response is long lasting.
Animals: Male Hartley strain guinea pigs, weighing between 200 and 250 g on delivery, were used. The animals were supplied by the Charles River Co., Wilmington, MA.
Sensitization Procedure: Ovalbumin (2× recrystallized, Miles Laboratories Ltd.) is dissolved (0.2 mg/ml) in saline. The guinea pigs are given a single intraperitoneal injection of 0.5 ml of the stock solution to sensitize them. The animals are maintained normally for four to six weeks before use.
Anesthesia: Surgical anesthesia is induced by giving an IP injection of valium, 5 mg/kg, followed immediately by Innovar-Vet (Pitman-More), 0.7 ml/kg (IM). Each ml of Innovar-Vet contains 0.4 mg fentanyl, 20 mg droperidol, 1.8 mg methylparaben, and 0.2 mg propylparaben.
Surgical Preparation: The anesthetized guinea pig is shaved in the ventral neck region and on the right side of the thorax and affixed supine to a dissecting board. A midline incision is made in the neck and the trachea is exposed. The jugular vein is cannulated with PE 50 tubing to administer drugs and antigen. The trachea is cannulated with PE 240 tubing. If the protocol required measuring blood pressure, the carotid artery is isolated and cannulated with PE 50 tubing. A spear-like cannula is then inserted into the thorax to measure transpulmonary pressure. Needle electrodes are inserted into the musculature of each leg to record electrocardiograms.
Pulmonary Mechanics Methods: The tracheal cannula is connected inline to a Fleisch 000 pneumotachograph (factor calibration 10 cm H2 O=22.2 ml/sec) and a Validyne differential pressure transducer, to measure respiratory flow. Transpulmonary pressure is measured by connecting one side of a Validyne pressure transducer to the side arm of the tracheal cannula and the other side to the cannula inserted into the thorax at approximately the 5th intercostal space.
The pressure and flow signals are fed into Validyne preamplifiers and then transmitted to a pulmonary mechanics computer (Buxco). […]

A further experiment deals with Human Basophils. Nature of the experiment: Histamine Release from Human Basophils (HHB). Type of experiment: cell-based. As to conditions: for inhibition at 33 µM: Homo sapiens, 33 μM cpd. An excerpt:
Histamine Release from Human Basophils (HHB) Procedure for Quantitating Active Histamine Release, and its Inhibition by Drugs, from Basophils of Human Blood Using an Automated Fluorometric Histamine Assay
Mediator (histamine) release from human blood basophils is an assay which provides a model for evaluating potential antiallergy (mediator release inhibitors) compounds.
Blood from allergic donors is obtained from volunteers through the Community Research Clinic. The leukocytes are removed after Hespan® sedimentation, washed and concentrated using calcium and magnesium free Hepes buffered saline and resuspended in Hepes Hepes buffered saline with 1 mM calcium and magnesium added back. The cells are incubated briefly at room temperature with either buffer alone (for measuring spontaneous release and challenge agent stimulated release) 6% perchloric acid (for measuring total available histamine in the cells) or drug at various concentrations. The cells are then either treated with buffer alone (to measure control spontaneous and drug effect on spontaneous release) or appropriate challenge agent (e.g., anti-IgE, antigen) mixed and incubated for 45 minutes at 37° C. in a shaking water bath. The reaction is stopped by centrifugation and the supernate is poured into autoanalyzer sample cups and samples assayed for assayed for histamine content using an automated fluorometric assay. By comparing the histamine release of drug-treated cells and the challenge agent controls, drug inhibition of mediator (histamine) release can be evaluated.
Histamine release is induced by (1) an aqueous antigen extract (short rageweed or house dust), or (2) anti-IgE antisera. Whole human blood is obtained from volunteers through the Community Research Clinic (CRC-92). Volunteers are chosen on the basis of adequate histamine release induced by antigen, or antiIgE antisera challenge. Leukocytes are incubated in vitro with the challenge agents at several concentrations. Dose-response curves for each volunteer, using each challenge agent, are generated. Test compounds are evaluated for inhibition of a near maximal response to one or more challenge agents. By including appropriate controls, it is possble to measure the effect of the test compound, at various concentrations, in several ways: (1) the effect of the compound on histamine release for each challenge agent; (2) the effect of the test compound on spontaneous release of histamine in the absence of the challenge agent (buffer alone); and (3) the effect of the test compound on the histamine assay.
Histamine is assayed using an automated continuous flow system which quantitates samples of 0.4 ml or more in volume, and concentrations of approximately 0.5 ng/ml or more. The rate of analysis is 30 samples/hour.
Methods of preparing leukocytes for this assay are described by Theuson, et al, J. of Immunology, Vol. 123, p. 426 (1979).
Samples are run in triplicate, using either 1.5 ml polypropylene capped reaction tubes, or 5.0 ml plastic uncapped tubes. Test compounds and challenge agents are prepared in HACM buffer, as described above. Fixed volume pipettes are used.
Test compound or vehicle control is added to three reaction tubes at 1.5×the final desired concentration (i.e., 400 μl of test compound per 600 μl total reaction volume). One hundred μl of cells is added to each tube and the mixture is incubated for eight minutes at room temperature, and two minutes at 37° C. before antigen or other stimulus challenge. One hundred μl of the challenge agent at 6× the final concentration is then added, and the final mixture is incubated at 37° C. for 45 minutes in a shaking water bath. This ensures that the cell preparation is constantly in suspension. The reaction is stopped by centrifugation at 2000 RPM for three minutes at 4° C. The supernate (.perspectiveto.500 μl) is poured into 2.0 ml autoanalyzer beakers and assayed for histamine by the fluorometric method. […]

Setting [1] is: Tripeptide challenge, read-out: HHB (Tripeptide), percent inhibition of histamine release.
The mark [2] stands for this setting: antigen challenge, read-out: HHB (antigen), percent inhibition of histamine release.

On to `O=C(O)c1ccccc1-c1ccccc1C(=O)Nc1ccc(CCCc2ccc(Cl)c(Cl)c2)cc1` [Example 1, [1,1'-Biphenyl]-2-carboxylic acid, 2'-[[[4-[3-(3,4-dichlorophenyl)propyl]phenyl]amino]carbonyl]-], for which, in the experiment on Sensitized Guinea Pigs, the “SRS-PIG, percent inhibition (CDYN)” value came to 51%. Further, the inhibition at 33 µM in the experiment on Human Basophils (setting [1]) and in the experiment with Human Basophils (setting [2]) was 72% throughout.
On to `O=C(O)c1ccccc1-c1ccccc1C(=O)Nc1ccc(OCCCc2ccccc2)cc1` [Example 2], for which, in the experiment on Sensitized Guinea Pigs, the “SRS-PIG, percent inhibition (CDYN)” value was determined as 64%. The inhibition at 33 µM in the experiment on Human Basophils (setting [1]) is 96%; in the experiment on Human Basophils (setting [2]), 12%.
On the same counts, the results for `O=C(O)c1ccccc1-c1ccccc1C(=O)Nc1ccc(CCc2ccc(Cl)c(Cl)c2)cc1` [Example 3, [1,1'-Biphenyl]-2-carboxylic acid, 2'-[[[4-[2-(3,4-dichlorophenyl)ethyl]phenyl]amino]carbonyl]-] are 16%, 93% and 94%.
For `O=C(O)c1ccccc1-c1ccccc1C(=O)Nc1cccc(CCc2ccc(Cl)c(Cl)c2)c1` [Example 4, [1,1'-Biphenyl]-2-carboxylic acid, 2'-[[[3-[2-(3,4-dichlorophenyl)ethyl]phenyl]amino]carbonyl]-], the “SRS-PIG, percent inhibition (CDYN)” value in the experiment on Sensitized Guinea Pigs is 3%. Moreover, the inhibition at 33 µM in the experiment with Human Basophils (setting [1]) came to 97%; in the experiment with Human Basophils (setting [2]) it was 101%.
`CN(C(=O)c1ccccc1-c1ccccc1C(=O)O)c1ccc(CCc2ccc(Cl)c(Cl)c2)cc1` [Example 5, [1,1'-Biphenyl]-2-carboxylic acid, 2'-[[[4-[2-(3,4-dichlorophenyl)ethyl]phenyl]methylamino]carbonyl]-]: the inhibition at 33 µM in the experiment on Human Basophils (setting [1]) was determined as 83%; with Human Basophils (setting [2]), 72%.
The matching figures for `COc1ccc(CCc2ccc(NC(=O)c3ccccc3-c3ccccc3C(=O)O)cc2)cc1OC` [Example 7, [1,1'-Biphenyl]-2-carboxylic acid, 2'-[[[4-[2-(3,4-dimethoxyphenyl)ethyl]phenyl]amino]carbonyl]-]: 93% and -5%.
The matching figures for `CN(C(=O)c1ccccc1-c1ccccc1C(=O)O)c1ccc(CCc2ccc(Cl)cc2)cc1` [Example 8]: 111% and 67%.
On the same counts, the results for `O=C(O)c1ccccc1-c1ccccc1C(=O)Nc1ccc(Cc2ccc(Cl)c(Cl)c2)cc1` [Example 9] are 100% and 87%.
For `O=C(O)c1ccccc1-c1ccccc1C(=O)Nc1ccc(CCCCc2ccc(Cl)c(Cl)c2)cc1` [Example 15, [1,1'-Biphenyl]-2-carboxylic acid, 2'-[[[4-[4-(3,4-dichlorophenyl)butyl]phenyl]amino]carbonyl]-], the “HHB (antigen), percent inhibition of histamine release @ 10” value in the experiment on Human Basophils (@ 10, antigen challenge) amounted to 39. In addition, in the experiment on Human Basophils (setting [1]), the inhibition at 33 µM was -17%.
In the case of `O=C(O)c1ccccc1-c1ccccc1C(=O)Nc1ccc(CCCc2ccccc2)cc1` [Example 16, [1,1'-Biphenyl]-2-carboxylic acid, 2'-[[[4-(3-phenylpropyl]phenyl]amino]carbonyl]-], the “SRS-PIG, percent inhibition (CDYN)” value in the experiment with Sensitized Guinea Pigs is listed as 33%. Besides, the inhibition at 33 µM in the experiment on Human Basophils (setting [1]) turned out to be 84%.
With `O=C(O)c1ccccc1-c1ccccc1C(=O)Nc1ccc(CCCCc2ccccc2)cc1` [Example 19, [1,1'-Biphenyl]-2-carboxylic acid, 2'-[[[4-(4-phenylbutyl)phenyl]amino]carbonyl]-], the inhibition at 33 µM in the experiment on Human Basophils (setting [1]) came out at 90%; in the experiment on Human Basophils (setting [2]), 59%.
In the case of `O=C(O)c1ccccc1-c1ccccc1C(=O)Nc1ccc(CCCCCc2ccccc2)cc1` [Example 21, [1,1'-Biphenyl]-2-carboxylic acid, 2'-[[[4-(5-phenylpentyl)phenyl]amino]carbonyl]-], the “SRS-PIG, percent inhibition (CDYN)” value with Sensitized Guinea Pigs is listed as 21%. Moreover, the results for the inhibition at 33 µM with Human Basophils (setting [1]) and in the experiment with Human Basophils (setting [2]) were 93% and 91%, respectively.

These data come from patent publication US4786755A, “Diphenic acid monoamides” (Warner-Lambert Company, priority 1986, dated 1988).
